What was measured:
opiate receptor [1] = experiment: Brain enzymatic inactivation as assessed by opiate receptor binding inhibition
Method: Male rats weighing 180-220 g (Sprangue-Dawley) were decapitated and each brain with the cerebellum removed was homogenized in 150 ml of ice-cold standard buffer (0.05 M Tris-HCl, ph 7.4 at 37°). After centrifugation at 4° at 12,000 × g, the membranes were reconstituted in standard buffer. After recentrifugation, each brain was suspended in 10 ml of the standard buffer.
Aliquots of the freshly prepared membrane preparation (100 μl) were incubated for 1 hr at 0° with 100 mM NaCl in a final volume of 0.5 ml with ^3 H!naloxone (Amersham-Searle, 34 Ci/mmol) in a concentration of 1.3 nM (20,000 cpm). After rapid filtration and washing with two 7-ml portions of ice-cold standard buffer, membrane-laden filters were transferred and counted at 40-45% efficiency at least 6 hours after shaking with detergent scintillation fluor (Aquasol, New England Nuclear).
The ability of the blood inhibitory factor eluted from the thin-layer plate to be degraded by enzymes present in brain was examined by incubating the blood substance with membranes or supernatant fluid from rat brain, terminating the enzyme action by boiling, and subsequently adding the product to the opiate receptor assay (see Table 1).
Rat brains were homogenized in 100 volumes (wt/vol) of standard buffer an
the particulate fraction and supernatant fluid were obtained by
centrifugation for 10 min. at 40,000 × g. After incubation under th
specified conditions in a total volume of 1 ml with met-enkephalin or
the supernatant fluid were assessed for inhibition in the standard opiate

opiate receptor [2] = experiment: Opiate receptor assay ([3H]naloxone binding, rapid filtration, rat brain membranes); details: 100 nM
[3] = Chang et al., cited from earlier work
rat = experiment: Assessment of analgesia: rat tail-flick test after micro-injection into periaqueductal gray matter; format: in vivo
Method: Eight rats were stereotaxically implanted with chronic indwelling cannulae guides constructed from 23 gauge TW stainless steel tubing. […] Testing was initiated approximately 1 week following surgery. The antinociceptive actions of morphine and anodynin were assessed using a modification of the D'Armour and Smith paradigm in which the latency for a rat to remove its tail from under a radiant heat source is measured in seconds. Baseline "tail-flick" latencies were always determined approximately 30 minutes prior to a drug or control injection by four trials separated by 10 sec.
The solutions were injected into the central gray matter with 30 guage injectors which extended 2 mm past the tip of the guide cannula. The injection rate was 15 μl/min. Testing for antinociception was initiated immediately after an injection. Animals were tested at 1-min. intervals for 5 min. and then at 10, 15, 30, and 60 min. At the end of the study, all animals were sacrificed and their brains were prepared following standard histological procedures to localize cannulae placements.

CSCC[C@H](NC(=O)[C@H](Cc1ccccc1)NC(=O)CNC(=O)CNC(=O)[C@@H](N)Cc1ccc(O)cc1)C(=O)O [Net-Enkephalin, H-Tyr-Gly-Gly-Phe-Met-OH]
% Inhibition Stereospecific Binding (opiate receptor [1]; pre-incubation: Buffer, 1 hr, 37°): 65%
% Inhibition Stereospecific Binding (opiate receptor [1]; pre-incubation: rat brain particulate fraction, 0.25 hr, 37°): 39%
% Inhibition Stereospecific Binding (opiate receptor [1]; pre-incubation: rat brain particulate fraction, 1 hr, 0°): 65%
% Inhibition Stereospecific Binding (opiate receptor [1]; pre-incubation: rat brain particulate fraction, 1 hr, 37°): 2%
% Inhibition Stereospecific Binding (opiate receptor [1]; pre-incubation: rat brain supernatant fluid, 1 hr, 37°): 1%

C=CCN1CC[C@@]23CCCC[C@@H]2[C@@H]1Cc1ccc(O)cc13 [dextrallorphan]
effect on 3H-naloxone binding (control incubation) (opiate receptor [2]): did not significantly reduce binding

CC(C)C[C@H](NC(=O)[C@H](Cc1ccccc1)NC(=O)CNC(=O)CNC(=O)[C@@H](N)Cc1ccc(O)cc1)C(=O)O [enkephalin]
Loss of opiate receptor inhibitory activity by brain enzymes (opiate receptor [1]; incubation with membranes or supernatant fluid from rat brain): completely and rapidly reversed
destruction in the brain [3]: rapidly destroyed
time after micro-injection at which analgesia disappears completely [3]: 1 to 2 min
dose required to elicit analgesia relative to morphine ([3]; micro-injection): at least 40 times

CN1CC[C@]23c4c5ccc(O)c4O[C@H]2[C@@H](O)C=C[C@H]3[C@H]1C5 [morphine]
antinociceptive action after pretreatment with naloxone (rat; 20 mg/kg naloxone intraperitoneally, 15 min prior): blocked
behavioral effect (immobility) (rat; central gray micro-injection in rats): stuperous immobility

From US4073885A (The United States of America as represented by the …, priority 1976, dated 1978)
